Patent publication US20240366598A1, “GLUCOSE-DEPENDENT INSULINOTROPIC POLYPEPTIDE RECEPTOR ANTAGONISTS AND USES THEREOF” (Pfizer Inc., priority 2023, published 2024)

Target: T1, human Glucose-dependent Insulinotropic Polypeptide Receptor (hGIPR) (Homo sapiens, UniProt P48546)
T1 sequence (P48546 22-466): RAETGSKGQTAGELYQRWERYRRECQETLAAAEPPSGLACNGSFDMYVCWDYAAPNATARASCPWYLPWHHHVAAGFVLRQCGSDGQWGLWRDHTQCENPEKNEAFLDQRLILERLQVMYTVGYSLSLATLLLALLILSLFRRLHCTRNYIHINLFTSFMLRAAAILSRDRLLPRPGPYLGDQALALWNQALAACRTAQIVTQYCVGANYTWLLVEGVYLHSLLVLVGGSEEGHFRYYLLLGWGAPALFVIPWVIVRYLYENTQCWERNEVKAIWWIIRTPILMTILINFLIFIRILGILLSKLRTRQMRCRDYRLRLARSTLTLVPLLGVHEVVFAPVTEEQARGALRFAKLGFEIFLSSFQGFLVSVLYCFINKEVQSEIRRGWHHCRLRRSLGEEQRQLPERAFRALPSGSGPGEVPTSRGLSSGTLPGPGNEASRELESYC
Assay: Functional in vitro GIPR antagonist potency assay (cAMP HTRF, CHO-K1 cells stably expressing hGIPR, hGIP stimulation at about EC80)
Type: cell-based
Conditions: geometric mean, hGIP at estimated EC80, examples marked ^2: overall geometric mean of multiple forms (including salts) tested
Description: Example AA. Functional In Vitro GIPR Antagonist Potency Assay
The functional in vitro antagonist potency for test compounds was determined by monitoring intracellular cyclic adenosine monophosphate (cAMP) levels in Chinese hamster ovary (CHO)—K1 cells stably expressing the human Glucose-dependent Insulinotropic Polypeptide Receptor (hGIPR). Following agonist activation, hGIPR associates with the G-protein complex causing the Gαs subunit to exchange bound guanosine diphosphate (GDP) for guanosine triphosphate (GTP), followed by dissociation of the Gαs-GTP complex. The activated Gas subunit can couple to downstream effectors to regulate the levels of second messengers or cAMP within the cell. Thereby, determination of intracellular cAMP levels allows for pharmacological characterization. Intracellular cAMP levels are quantitated using a homogenous assay utilizing the Homogeneous Time Resolved Fluorescence (HTRF) technology from Perkin Elmer. […] The two entities compete for binding to a monoclonal anti-cAMP antibody labeled with cryptate. The specific signal is inversely proportional to the concentration of cAMP in the cells.
Test compounds were solubilized to a concentration of 30 mM in 100% dimethyl sulfoxide (DMSO). An 11-point dilution series using 1 in 3.162-fold serial dilutions was created in 100% DMSO with a top concentration of 8 mM. The serially diluted compound was spotted with an Echo Acoustic liquid handler (Beckman Coulter) into a 384-well assay plate (Corning, Cat No. 3824) at 50 nL/well with duplicate points at each concentration, at a 200× final assay concentration (FAC). The final compound concentration range in the assay was 40 μM to […], with a final DMSO concentration of 0.5%.
Frozen assay-ready vials (at 1×10^7 cells/vial) of CHO-K1 cells stably expressing the Gs-coupled human GIPR receptor (Eurofins, DiscoverX, Cat No. 95-0146C2) were thawed, counted, and resuspended in assay buffer consisting of Hank's Balanced Salt Solution (HBSS, Lonza Cat No. 10-527) containing 20 mM (4-(2-hydroxyethyl)-1-piperazineethanesulfonic acid (HEPES, Lonza, Cat No. 17-737E), 0.1% bovine serum albumin (BSA, Sigma, Cat No. A7979), and 200 μM 3-isobutyl-1-methylxanthine (IBMX, Sigma, Cat No. 15879) at a density of 4×10^5 cells/mL. Cells were added to assay plate (5 μL/well of 4×10^5 cells/mL stock for 2,000 cells/well final) containing 50 nL of 200× FAC test compound, and incubated at 37° C. (95% O2: 5% CO2) for 2 hours, with micro-clime lids (Labcyte, Cat No. LLS-0310). Following the 2-hour cell and compound incubation, a stimulation mix comprised of hGIPR agonist human glucose-dependent insulinotropic polypeptide (hGIP, full length, Sigma Cat No. G2269) in assay buffer/0.1% DMSO was added to the assay plate (5 μL/well) at an estimated EC80 FAC (based on previous hGIP agonist curves) and incubated for another 30 minutes with micro-clime lids at 37° C. (95% O2: 5% CO2), after which intracellular cAMP levels were quantified as per Perkin Elmer's protocol (5 μL of d2 and then 5 μL cryptate, incubated for 1 hour at room temperature). Emission spectra of samples were measured on a Pherastar plate reader (BMG Labtech Inc) using a HTRF protocol (excitation, 320 nm; emission, 665 nm/620 nm).
(95% O2: 5% CO2), with a micro-clime lid. Following the 2-hour cell and DMSO incubation, a hGIP concentration response curve at 2× FAC (12-point curve using 1 in 3 serial dilutions, with triplicate points at each concentration, 100 nM final top concentration) in assay buffer/1% DMSO was added (5 μL/well) and incubated for a further 30 minutes with a micro-clime lid at 37° C. (95% O2: 5% CO2), after which intracellular cAMP levels were quantified and samples measured as described previously. Experiments passed quality control if the agonist concentration used for stimulation fell between the on-the-day EC50-EC90. […]

Q: For Cc1cc(NC(=O)N2CCC[C@@H]2C(=O)Nc2ccc3c(n2)CC[C@@H](C(=O)O)C3)ccc1C(F)(F)F (single isomer, unassigned) [Example 227, 2-[(1-{[3-methyl-4-(trifluoromethyl)phenyl]carbamoyl}-D-prolyl)amino]-5,6,7,8-tetrahydroquinoline-6-carboxylic acid, DIAST-2], which IC50 is on record?
A: The IC50 was 53 nM.

Q: CC(C)Cc1ccc(CNC(=O)N2CCC[C@@H]2C(=O)Nc2ccc(-c3ccc(C(=O)O)cc3)cc2)cc1 [Example 137, 4′-{[1-{{[4-(2-methylpropyl)phenyl]methyl}carbamoyl)-D-prolyl]amino}[1,1′-biphenyl]-4-carboxylic acid] was tested. Which IC50 did it give?
A: The IC50 was 9.8 nM.

Q: Cc1cc(NC(=O)N2CCC[C@@H]2C(=O)Nc2ccc(-c3ccc(C(=O)O)nc3)cc2)ccc1C(C)C [Example 19, 5-{4-[(1-{[3-Methyl-4-(propan-2-yl)phenyl]carbamoyl}-D-prolyl)amino]phenyl}pyridine-2-carboxylic acid] was tested. Which IC50 did it give?
A: Its IC50 is 11 nM.

Q: How did the IC50 turn out when CC(C)c1ccc(NC(=O)N2CCC[C@@H]2C(=O)Nc2ccc(-c3ccc(C(=O)O)cc3)cc2)c(Cl)c1 [Example 135, 4′-[(1-{[2-chloro-4-(propan-2-yl)phenyl]carbamoyl}-D-prolyl)amino][1,1′-biphenyl]-4-carboxylic acid] was run?
A: Its IC50 is 52 nM.

Q: How did the IC50 turn out when O=C(O)c1ccc(-c2ccc(NC(=O)[C@H]3CCCN3C(=O)Nc3ccc(C4(C(F)(F)F)CC4)cc3)cc2)cn1 [Example 197, 5-(4-{[1-({4-[1-(trifluoromethyl)cyclopropyl]phenyl}carbamoyl)-D-prolyl]amino}phenyl)pyridine-2-carboxylic acid] was run?
A: Its IC50 is 29 nM.

Q: Which IC50 does the source give for O=C(O)c1ccc(-c2ccc(NC(=O)[C@H]3CCCN3C(=O)NCc3ccc(C(F)(F)F)cc3)cc2)cn1 [Example 195, 5-(4-{[1-({[4-(trifluoromethyl)phenyl]methyl}carbamoyl)-D-prolyl]amino}phenyl)pyridine-2-carboxylic acid] here?
A: Its IC50 is 35 nM.

Q: CC(C)c1ccc(NC(=O)N2CCC[C@@H]2C(=O)Nc2ccc(-c3ccc(C(=O)O)nc3)cc2F)cc1 [Example 65, 5-{3-fluoro-4-[(1-{[4-(propan-2-yl)phenyl]carbamoyl}-D-prolyl)amino]phenyl}pyridine-2-carboxylic acid] was tested. Which IC50 did it give?
A: The IC50 was 13 nM.

Q: Which IC50 does the source give for Cc1cc(NC(=O)N2CCC[C@@H]2C(=O)Nc2ccc(-c3ccc(C(=O)O)nc3)cc2)ccc1C(F)(F)F [Example 17, 5-{4-[(1-{[3-Methyl-4-(trifluoromethyl)phenyl]carbamoyl}-D-prolyl)amino]phenyl}pyridine-2-carboxylic acid] here?
A: Its IC50 is 14 nM.

Q: How did the IC50 turn out when Cc1cc(C(=O)O)ccc1-c1ccc(NC(=O)[C@H]2CCCN2C(=O)Nc2ccc(C(C)C)cc2)cn1 [Example 60, 3-methyl-4-{5-[(1-{[4-(propan-2-yl)phenyl]carbamoyl}-D-prolyl)amino]pyridin-2-yl}benzoic acid] was run?
A: The IC50 was 21 nM.

Q: O=C(O)c1cccc(-c2ccc(NC(=O)[C@H]3CCCN3C(=O)Nc3ccc(C4CCC4)cc3)nc2)c1 [Example 38, 3-[6-({1-[(4-Cyclobutylphenyl)carbamoyl]-D-prolyl}amino)pyridin-3-yl]benzoic acid] was tested. Which IC50 did it give?
A: The IC50 was 17 nM.

Q: With O=C(O)c1ccc(-c2ccc(NC(=O)[C@H]3CCCN3C(=O)Nc3ccc(C(F)(F)F)c(F)c3)cn2)cc1 [Example 215, 4-{5-[(1-{[3-fluoro-4-(trifluoromethyl)phenyl]carbamoyl}-D-prolyl)amino]pyridin-2-yl}benzoic acid] as the molecule, how does the IC50 read?
A: The IC50 was 15 nM.

Q: Which IC50 does the source give for CC(C)c1ccc(NC(=O)N2CCC[C@@H]2C(=O)Nc2ccc(-c3ccc(C(=O)O)cc3)cn2)cc1 [Example 5, Ammonium 4-{6-[(1-{[4-(propan-2-yl)phenyl]carbamoyl}-D-prolyl)amino]pyridin-3-yl}benzoate] here?
A: Its IC50 is 9.1 nM.

Q: How did the IC50 turn out when Cc1nc(NC(=O)N2CCC[C@@H]2C(=O)Nc2ccc(-c3ccc(C(=O)O)cc3)cc2)ccc1C(C)C [Example 102, 4′-[(1-{[6-methyl-5-(propan-2-yl)pyridin-2-yl]carbamoyl}-D-prolyl)amino][1,1′-biphenyl]-4-carboxylic acid] was run?
A: The IC50 was 690 nM.

Q: For Cc1cc(NC(=O)N2CCC[C@@H]2C(=O)Nc2ccc(-c3ccc(C(=O)O)cc3)nc2)ccc1C(F)(F)F [Example 163, 4-{5-[(1-{[3-methyl-4-(trifluoromethyl)phenyl]carbamoyl}-D-prolyl)amino]pyridin-2-yl}benzoic acid], which IC50 is on record?
A: Its IC50 is 19 nM.

Q: Which IC50 does the source give for CC(C)c1ccc(NC(=O)N2CCC[C@@H]2C(=O)Nc2ccc(-c3cc(F)c(O)c(F)c3)cc2)cc1 [Example 99, (2R)-N^2-(3′,5′-difluoro-4′-hydroxy[1,1′-biphenyl]-4-yl)-N^1-[4-(propan-2-yl)phenyl]pyrrolidine-1,2-dicarboxamide] here?
A: Its IC50 is 18 nM.

Q: O=C(O)c1ccc(-c2ccc(NC(=O)[C@H]3CCCN3C(=O)NCc3ccc(C(F)(F)F)cc3F)cc2)cc1 [Example 131, 4′-{[1-({[2-fluoro-4-(trifluoromethyl)phenyl]methyl}carbamoyl)-D-prolyl]amino}[1,1′-biphenyl]-4-carboxylic acid] was tested. Which IC50 did it give?
A: The IC50 was 140 nM.

Q: O=C(O)c1ccc(-c2ccc(NC(=O)[C@H]3CCCN3C(=O)NCc3ccc(C4CC4)cc3)cc2)cc1 [Example 136, 4′-[(1-{[(4-cyclopropylphenyl)methyl]carbamoyl}-D-prolyl)amino][1,1′-biphenyl]-4-carboxylic acid] was tested. Which IC50 did it give?
A: The IC50 was 7.8 nM.

Q: O=C(O)c1ccc(-c2ccc(NC(=O)[C@H]3CCCN3C(=O)Nc3ccc(C4CC4)c(F)c3)cc2)cc1 [Example 149, 4′-({1-[(4-cyclopropyl-3-fluorophenyl)carbamoyl]-D-prolyl}amino)[1,1′-biphenyl]-4-carboxylic acid] was tested. Which IC50 did it give?
A: The IC50 was 21 nM.

Q: Cc1ccc(CNC(=O)N2CCC[C@@H]2C(=O)Nc2ccc(-c3ccc(C(=O)O)cc3)cc2)cc1F [Example 129, 4′-[(1-{[(3-fluoro-4-methylphenyl)methyl]carbamoyl}-D-prolyl)amino][1,1′-biphenyl]-4-carboxylic acid] was tested. Which IC50 did it give?
A: Its IC50 is 14 nM.

Q: Which IC50 does the source give for CC(C)c1ccc(NC(=O)N2CCC[C@@H]2C(=O)Nc2ccc(-c3ccc(C(=O)O)cc3)cc2)c(F)c1 [Example 117, 4′-[(1-{[2-fluoro-4-(propan-2-yl)phenyl]carbamoyl}-D-prolyl)amino][1,1′-biphenyl]-4-carboxylic acid] here?
A: The IC50 was 26 nM.

Q: With CC(C)c1ccc(NC(=O)N2CCC[C@@H]2C(=O)Nc2ccc(-c3ncc(C(=O)O)cn3)cc2)cc1 [Example 8, ammonium 2-{4-[(1-{[4-(propan-2-yl)phenyl]carbamoyl}-D-prolyl)amino]phenyl}pyrimidine-5-carboxylate] as the molecule, how does the IC50 read?
A: Its IC50 is 150 nM.

Q: CC(C)c1ccc(NC(=O)N2CCC[C@@H]2C(=O)Nc2ccc(-c3cc(C(=O)O)c(F)cc3F)cc2)cc1 [Example 45, 4,6-difluoro-4′-[(1-{[4-(propan-2-yl)phenyl]carbamoyl}-D-prolyl)amino][1,1′-biphenyl]-3-carboxylic acid] was tested. Which IC50 did it give?
A: Its IC50 is 540 nM.
